Drawing on PubChem BioAssay AID330 (DTP/NCI, 2004), this text covers T/C for 21 compounds.

Structures are written as SMILES. Where “and” joins values, the source holds several entries; their conditions need not be identical. Equal values may be shown once. Inconclusive results and toxic doses are left out.

The test system of the assay is P388 leukemia ip, CD2F1 mice, survival T/C. The assay is described as follows: NCI In Vivo Anticancer Drug Screen. Data for tumor model P388 Leukemia (intraperitoneal) in CD2F1 (CDF1) mice. Conditions: endpoint: median survival time, higher = longer survival. Summed up: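 Mice carrying the transplanted tumor received test compound or vehicle. Survival was recorded in each group, and the value is the treated-group measurement divided by that of the vehicle-treated control group.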

The mark [1] stands for this setting: dose: 50.0 mg/kg/injection, schedule: Q01DX005 (ip), vehicle: Klucel (hydroxypropylcellulose) (HPC).
Setting [2] is: dose: 100.0 mg/kg/injection, schedule: Q01DX005 (ip), vehicle: Klucel (hydroxypropylcellulose) (HPC).
Where [3] appears, read: dose: 60.0 mg/kg/injection, schedule: Q01DX005 (ip), vehicle: saline with Tween-80.
[4] abbreviates: dose: 120.0 mg/kg/injection, schedule: Q01DX005 (ip), vehicle: saline with Tween-80.
Where [5] appears, read: dose: 50.0 mg/kg/injection, schedule: Q01DX009 (ip), vehicle: saline with Tween-80.
[6] abbreviates: dose: 100.0 mg/kg/injection, schedule: Q01DX009 (ip), vehicle: saline with Tween-80.
[7] abbreviates: dose: 50.0 mg/kg/injection, schedule: Q01DX009 (ip), vehicle: Klucel (hydroxypropylcellulose) (HPC).
The mark [8] stands for this setting: dose: 100.0 mg/kg/injection, schedule: Q01DX009 (ip), vehicle: Klucel (hydroxypropylcellulose) (HPC).
Where [9] appears, read: dose: 200.0 mg/kg/injection, schedule: Q01DX009 (ip), vehicle: Klucel (hydroxypropylcellulose) (HPC).
Where [10] appears, read: dose: 3.12 mg/kg/injection, schedule: Q01DX009 (ip), vehicle: Klucel (hydroxypropylcellulose) (HPC).
Where [11] appears, read: dose: 6.25 mg/kg/injection, schedule: Q01DX009 (ip), vehicle: Klucel (hydroxypropylcellulose) (HPC).
Setting [12] is: dose: 25.0 mg/kg/injection, schedule: Q01DX009 (ip), vehicle: Klucel (hydroxypropylcellulose) (HPC).

Regarding `CC1CN2CC(C)O[Si](CC[Si](C)(C)C)(O1)OC(C)C2` (stereo not given), the T/C is 104 % of control under setting [1] and 90 % of control under setting [2].
For the compound `O=C(O)C(=O)O.[Cu+2].[NH-]C1CCCC2CCC[N-]C12` (stereo not given), the T/C (dose: 7.5 mg/kg/injection, schedule: Q04DX002 (ip), vehicle: suspension in saline) is 89 % of control; the T/C (dose: 15.0 mg/kg/injection, schedule: Q04DX002 (ip), vehicle: suspension in saline) is 92 % of control; the T/C (dose: 30.0 mg/kg/injection, schedule: Q04DX002 (ip), vehicle: suspension in saline) is 90 % of control.
`COc1cc2c(c(Cl)c1OC)CCN(C)CC2c1ccccc1` (stereo not given): the T/C runs as follows: (dose: 60.0 mg/kg/injection, schedule: Q01DX005 (ip), vehicle: saline) 102 % of control; (dose: 120.0 mg/kg/injection, schedule: Q01DX005 (ip), vehicle: saline) 98 % of control.
Turning to `COC1=CC(=O)N/C1=C(\OC)c1ccccc1`, the T/C under setting [3] is 90 % of control; the T/C under setting [4] is 93 % of control; the T/C (dose: 240.0 mg/kg/injection, schedule: Q01DX005 (ip), vehicle: saline with Tween-80) is 99 % of control.
As for `CCCNC(=O)N1C2C3CCC(C)(OC3(C)C)C21` (stereo not given), the T/C is, setting by setting: (dose: 50.0 mg/kg/injection, schedule: Q01DX005 (ip), vehicle: saline) 106 % of control; (dose: 100.0 mg/kg/injection, schedule: Q01DX005 (ip), vehicle: saline) 100 % of control; (dose: 200.0 mg/kg/injection, schedule: Q01DX005 (ip), vehicle: saline) 98 % of control.
`CCCCC(NC(=O)C(Cl)Cl)C(=O)O` (stereo not given): the T/C runs as follows: under setting [1], 94 % of control; under setting [2], 98 % of control; (dose: 200.0 mg/kg/injection, schedule: Q01DX005 (ip), vehicle: Klucel (hydroxypropylcellulose) (HPC)) 88 % of control.
Regarding `COC(=O)C#CC(N)=O`, the T/C is 113 % of control (dose: 1.25 mg/kg/injection, schedule: Q01DX009 (ip), vehicle: saline sonified); 118 % of control (dose: 1.65 mg/kg/injection, schedule: Q01DX009 (ip), vehicle: saline with Tween-80); 118 % of control (dose: 2.5 mg/kg/injection, schedule: Q01DX009 (ip), vehicle: saline with Tween-80); 118 % of control (dose: 3.75 mg/kg/injection, schedule: Q01DX009 (ip), vehicle: saline with Tween-80); 122 % of control (dose: 5.0 mg/kg/injection, schedule: Q01DX009 (ip), vehicle: saline sonified).
With `O=C1OCC/C1=C/OS(=O)(=O)C(F)(F)F`, the T/C is 101 % of control and 107 % of control (dose: 18.8 mg/kg/injection, schedule: Q01DX009 (ip), vehicle: distilled water + Tween-80); 110 % of control (dose: 37.5 mg/kg/injection, schedule: Q01DX009 (ip), vehicle: distilled water + Tween-80); 118 % of control and 123 % of control (dose: 75.0 mg/kg/injection, schedule: Q01DX009 (ip), vehicle: distilled water + Tween-80).
Consider `CCN(CC)CCOc1cccc(C)c1C`, for which the T/C (dose: 25.0 mg/kg/injection, schedule: Q01DX009 (ip), vehicle: saline with Tween-80) is 100 % of control; the T/C under setting [5] was 95 % of control; the T/C under setting [6] is 104 % of control.
`O=C(CCSc1nc(-c2ccccc2)c(-c2ccccc2)o1)N1CCCCC1`: the T/C under setting [7] was 101 % of control, the T/C under setting [8] was 101 % of control and the T/C under setting [9] is 117 % of control.
As for `COc1ccc2nc(C)cc(N/N=C/c3ccc(N(CCCl)CCCl)cc3)c2c1`, the T/C is, setting by setting: (dose: 0.78 mg/kg/injection, schedule: Q01DX009 (ip), vehicle: Klucel (hydroxypropylcellulose) (HPC)) 105 % of control; (dose: 1.56 mg/kg/injection, schedule: Q01DX009 (ip), vehicle: Klucel (hydroxypropylcellulose) (HPC)) 103 % of control; under setting [10], 90 % of control and 98 % of control; under setting [11], 90 % of control; under setting [12], 90 % of control.
With `CCCC(C)N(CC(=O)Nc1ccc(S(N)(=O)=O)cc1)C(C)=O` (stereo not given), the T/C is, setting by setting: under setting [7], 100 % of control; under setting [8], 107 % of control; under setting [9], 109 % of control.
Turning to `COC(=O)c1nc(N)nc(C(=O)OC)c1C(=O)c1cccs1`, the T/C runs as follows: under setting [3], 98 % of control; under setting [4], 99 % of control.
With `CCC(=O)[O][Sn]([CH3])([CH3])[O][Sn]([CH3])([CH3])[O]C(=O)CC`, the T/C runs as follows: (dose: 6.25 mg/kg/injection, schedule: Q01DX005 (ip), vehicle: saline) 117 % of control; (dose: 12.5 mg/kg/injection, schedule: Q01DX005 (ip), vehicle: saline) 117 % of control and 118 % of control; (dose: 25.0 mg/kg/injection, schedule: Q01DX005 (ip), vehicle: saline) 120 % of control.
Take `C[Si](C)(C)N=S=N[Si](C)(C)C`: the T/C is, setting by setting: (dose: 50.0 mg/kg/injection, schedule: Q01DX005 (ip), vehicle: saline with Tween-80) 101 % of control; (dose: 100.0 mg/kg/injection, schedule: Q01DX005 (ip), vehicle: saline with Tween-80) 108 % of control.
As for `CCN1C(=O)/C(=C/C=C/N(C)c2ccccc2)SC1=S`, the T/C by setting is: (dose: 50.0 mg/kg/injection, schedule: Q01DX009 (ip), vehicle: saline) 112 % of control; (dose: 100.0 mg/kg/injection, schedule: Q01DX009 (ip), vehicle: saline) 103 % of control.
For the compound `CCCCCCCCCCCCCC[N+]1([O-])CCOCC1`, the T/C was 104 % of control (dose: 25.0 mg/kg/injection, schedule: Q04DX002 (ip), vehicle: saline); 104 % of control (dose: 50.0 mg/kg/injection, schedule: Q04DX002 (ip), vehicle: saline); 104 % of control and 94 % of control (dose: 100.0 mg/kg/injection, schedule: Q04DX002 (ip), vehicle: saline).
Consider `COc1cccc2c1C(=O)c1c(O)c3c(c(O)c1C2=O)C[C@@](O)(C(C)O)C[C@@H]3OC1CC(N(Cc2ccccc2)Cc2ccccc2)C(O)C(C)O1` (stereo not given in full), for which the T/C was 121 % of control (dose: 4.7 mg/kg/injection, schedule: Q04DX003 (ip), vehicle: water); 165 % of control (dose: 6.25 mg/kg/injection, schedule: Q01DX009 (ip), vehicle: water); 228 % of control and 233 % of control (dose: 12.5 mg/kg/injection, schedule: Q01DX009 (ip), vehicle: water); 97 % of control (dose: 25.0 mg/kg/injection, schedule: Q01DX009 (ip), vehicle: water); 194 % of control (dose: 25.0 mg/kg/injection, schedule: Q04DX003 (ip), vehicle: water); 106 % of control (dose: 37.5 mg/kg/injection, schedule: Q04DX003 (ip), vehicle: water). Moreover, the T/C was 233 % of control (dose: 50.0 mg/kg/injection, schedule: Q04DX003 (ip), vehicle: water) and 116 % of control (dose: 75.0 mg/kg/injection, schedule: Q04DX003 (ip), vehicle: water).
Consider `COC12C(COC(=O)NCCO)C3=C(C(=O)C(C)=C(N)C3=O)N1CC1NC12` (stereo not given), for which the T/C runs as follows: under setting [10], 122 % of control; (dose: 3.13 mg/kg/injection, schedule: Q01DX009 (ip), vehicle: Klucel (hydroxypropylcellulose) (HPC)) 169 % of control; (dose: 4.5 mg/kg/injection, schedule: Q01DX009 (ip), vehicle: Klucel (hydroxypropylcellulose) (HPC)) 155 % of control; under setting [11], 163 % of control and 175 % of control; (dose: 9.0 mg/kg/injection, schedule: Q01DX009 (ip), vehicle: Klucel (hydroxypropylcellulose) (HPC)) 190 % of control; (dose: 12.5 mg/kg/injection, schedule: Q01DX009 (ip), vehicle: Klucel (hydroxypropylcellulose) (HPC)) 160 % of control and 212 % of control. For the same compound, the T/C reads like this: (dose: 18.0 mg/kg/injection, schedule: Q01DX009 (ip), vehicle: Klucel (hydroxypropylcellulose) (HPC)) 192 % of control and 201 % of control and 238 % of control; under setting [12], 211 % of control and 214 % of control; (dose: 28.0 mg/kg/injection, schedule: Q01DX009 (ip), vehicle: Klucel (hydroxypropylcellulose) (HPC)) 181 % of control and 182 % of control; (dose: 43.0 mg/kg/injection, schedule: Q01DX009 (ip), vehicle: Klucel (hydroxypropylcellulose) (HPC)) 92 % of control; under setting [7], 104 % of control.
On to `O=C1NC(=O)N2CC(CI)OC2C1c1ccccc1` (stereo not given), for which the T/C was 103 % of control under setting [7], 98 % of control under setting [8] and 100 % of control under setting [9].
On to `COC1CC(C23C4CC2C3C2CC/C=C\CCC24)CC1OC` (stereo not given), for which the T/C under setting [5] is 98 % of control; the T/C under setting [6] was 100 % of control; the T/C (dose: 200.0 mg/kg/injection, schedule: Q01DX009 (ip), vehicle: saline with Tween-80) was 102 % of control.
